This note sets out measurements from patent US10144742B2 (Millennium Pharmaceuticals, Inc., priority 2014, dated 2018).

The target in one experiment is hNAMPT protein (Homo sapiens (Human), UniProt P43490). Briefly: NAMPT enzyme assay (TR-FRET/HTRF, BodiPY ligand, anti 6His-Tb). The format is binding. The following applies: for IC50: NAMPT IC50 range class, read-out: IC50; for inhibition at 1 µM: read-out: Percent Inhibition. The gist of the method:
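TR-FRET binding assay in which His-tagged human NAMPT with anti-6His-Tb is displaced by compound from a BodiPY ligand, incubated 1 h at rt in the dark. Excitation was at 320 nm, with the 520/486 nm emission ratio read. IC50 was fitted from inhibition relative to DMSO controls.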
Background: Time-resolved FRET reads energy transfer from a long-lived donor to a nearby acceptor.

The subject of another experiment is PC3 cells. Kind of experiment: PC3 growth inhibition (Cell-titer glo, 72 hours). It counts as cell-based. The following applies: Homo sapiens, PC-3, PC3 cells, 72 hours, Cell-titer glo, read-out: Percent Inhibition (PC3 growth inhibition); for inhibition at 1 µM: compound concentration 1 μM; for inhibition at 1.667 µM: compound concentration 1.667 μM. The gist of the method: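 PC3 cells in RPMI1640 seeded overnight at 37 °C, 5% CO2, then exposed to compound diluted in AIM serum-free medium for 72 h. Viability by CellTiter-Glo luminescence vs DMSO controls; single-concentration % remaining viability (1 μM or 1.667 μM), or GI50/LD50 from curves.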

By IC50 is commonly meant the concentration that gives 50% inhibition. One may read the inhibition as the change of the read-out against control, counted positive when it falls.

Where two headings read alike, the source gives them in different places.

Sequence of hNAMPT protein (P43490 whole entry): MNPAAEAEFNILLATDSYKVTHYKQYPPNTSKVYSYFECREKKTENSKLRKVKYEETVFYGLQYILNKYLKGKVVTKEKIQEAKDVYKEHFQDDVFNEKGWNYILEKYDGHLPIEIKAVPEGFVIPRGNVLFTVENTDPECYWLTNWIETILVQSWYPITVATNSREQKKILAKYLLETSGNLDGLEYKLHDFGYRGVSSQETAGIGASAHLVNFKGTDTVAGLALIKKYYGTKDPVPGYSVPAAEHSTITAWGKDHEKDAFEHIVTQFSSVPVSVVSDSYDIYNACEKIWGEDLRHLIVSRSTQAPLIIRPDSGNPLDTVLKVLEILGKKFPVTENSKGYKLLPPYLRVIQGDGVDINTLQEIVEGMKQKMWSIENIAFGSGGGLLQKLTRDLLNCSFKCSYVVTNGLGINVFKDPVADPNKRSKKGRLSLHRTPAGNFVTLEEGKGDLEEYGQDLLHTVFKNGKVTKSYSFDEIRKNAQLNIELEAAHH

Regarding `O=C(NCCCn1ccnc1)c1ccc2nc(N3CCC(N4CCOCC4)C3)c(-c3ccccc3)nc2c1` (stereo not drawn) [Compound I-267, N-[3-(1H-imidazol-1-yl)propyl]-2-[3-(morpholin-4-yl)pyrrolidin-1-yl]-3-phenylquinoxaline-6-carboxamide], the half-maximal inhibitory concentration (IC50) at hNAMPT protein lay within 100 to 500 nM. Further, the inhibition at 1 µM is 81% on hNAMPT protein (compound concentration 1 μM) and -7% in the experiment on PC3 cells.
For the compound `O=C(NCCCn1ccnc1)c1ccc2nc(N3CCC4(CC3)Cc3ccccc3O4)c(-c3ccccc3)nc2c1` [Compound I-268, N-[3-(1H-imidazol-1-yl)propyl]-3-phenyl-2-(1′H,3H-spiro[1-benzofuran-2,4′-piperidin]-1′-yl)quinoxaline-6-carboxamide], the half-inhibitory concentration (IC50) on hNAMPT protein lay in the range of 1000 to 2000 nM. Also, the inhibition at 1 µM at hNAMPT protein (compound concentration 1 μM) was 63%; in the experiment on PC3 cells, -6%.
The like results for `O=C(NCCc1cccnc1)c1ccc2nc(-c3ccc(F)cc3)c(-c3ccc(F)cc3)nc2c1` [Compound I-269, 2,3-bis(4-fluorophenyl)-N-[2-(pyridin-3-yl)ethyl]quinoxaline-6-carboxamide] were, in that order, 100 to 500 nM, 73% and 0%.
For the compound `O=C(NCCn1ccnc1)c1ccc2nc(-c3ccc(F)cc3)c(-c3ccc(F)cc3)nc2c1` [Compound I-270, 2,3-bis(4-fluorophenyl)-N-[2-(1H-imidazol-1-yl)ethyl]quinoxaline-6-carboxamide], on hNAMPT protein, the IC50 fell in the range of 1000 to 2000 nM. In addition, the inhibition at 1 µM was 47% on hNAMPT protein (compound concentration 1 μM) and 111% with PC3 cells.
Consider `O=C(NCCCn1ccnc1)c1ccc2nc(N3CCC(C4CCNCC4)CC3)c(-c3ccccc3)nc2c1` [Compound I-271, 2-(4,4′-Bipiperidin-1-yl)-N-[3-(1H-imidazol-1-yl)propyl]-3-phenylquinoxaline-6-carboxamide], for which, at hNAMPT protein, the IC50 was less than 100 nM and the inhibition at 1 µM worked out at 102%. Besides, the inhibition at 1 µM in the experiment on PC3 cells is -2%.
With `O=C(NCCCn1ccnc1)c1ccc2nc(N3CCC(N4CCNC4=O)CC3)c(-c3ccccc3)nc2c1` [Compound I-272, N-[3-(1H-imidazol-1-yl)propyl]-2-[4-(2-oxoimidazolidin-1-yl)piperidin-1-yl]-3-phenylquinoxaline-6-carboxamide], the 50% inhibitory concentration (IC50) at hNAMPT protein was 100 to 500 nM. Also, the inhibition at 1 µM at hNAMPT protein (compound concentration 1 μM) was 72%; in the experiment with PC3 cells, -6%.
With `O=C(NCCCc1ncc[nH]1)c1ccc2nc(Oc3ccccc3)c(-c3ccc(Cl)cc3)nc2c1` [Compound I-273, 3-(4-Chlorophenyl)-N-[3-(1H-imidazol-2-yl)propyl]-2-phenoxyquinoxaline-6-carboxamide], on hNAMPT protein, the 50% inhibitory concentration (IC50) was less than 100 nM. At hNAMPT protein (compound concentration 1 μM), the inhibition at 1 µM amounted to 88%. Further, in the experiment with PC3 cells, the inhibition at 1.667 µM turned out to be 2%.
For the compound `O=C(NCCCn1ccnc1)c1ccc2nc(NC3CCC3)c(-c3ccccc3)nc2c1` [Compound I-274, 2-(cyclobutylamino)-N-[3-(1H-imidazol-1-yl)propyl]-3-phenylquinoxaline-6-carboxamide], the IC50 at hNAMPT protein lay in the range of 2000 to 10000 nM. For the same compound, the inhibition at 1 µM on hNAMPT protein (compound concentration 1 μM) is 25%; in the experiment with PC3 cells, -5%.
The matching figures for `O=C(NCCCn1ccnc1)c1ccc2nc(N3CCC4(CC3)OCCO4)c(-c3ccccc3)nc2c1` [Compound I-275]: less than 100 nM, 99% and 0%.
Take `Cn1cnc(CCNC(=O)c2ccc3nc(-c4ccc(F)cc4)c(-c4ccc(F)cc4)nc3c2)c1` [Compound I-276, 2,3-bis(4-fluorophenyl)-N-[2-(1-methyl-1H-imidazol-4-yl)ethyl]quinoxaline-6-carboxamide]: the half-inhibitory concentration (IC50) on hNAMPT protein is 1000 to 2000 nM. Further, the inhibition at 1 µM amounted to 38% on hNAMPT protein (compound concentration 1 μM) and 90% with PC3 cells.
Regarding `O=C(NCCCc1ncc[nH]1)c1ccc2nc(N3CCC4(CC3)COC4)c(-c3ccc(F)cc3)nc2c1` [Compound I-277, 3-(4-Fluorophenyl)-N-[3-(1H-imidazol-2-yl)propyl]-2-(2-oxa-7-azaspiro[3.5]non-7-yl)quinoxaline-6-carboxamide], on hNAMPT protein, the concentration for half-maximal inhibition (IC50) is less than 100 nM and the inhibition at 1 µM is 99%. Besides, the inhibition at 1.667 µM in the experiment with PC3 cells was 2%.
On to `CCN(CC)c1nc2cc(C(=O)NCCCn3ccnc3)ccc2nc1-c1ccccc1` [Compound I-278, 3-(diethylamino)-N-[3-(1H-imidazol-1-yl)propyl]-2-phenylquinoxaline-6-carboxamide], for which the IC50 on hNAMPT protein was 2000 to 10000 nM. The inhibition at 1 µM on hNAMPT protein (compound concentration 1 μM) came to 15%; in the experiment on PC3 cells, 98%.
The matching figures for `CN(CCn1ccnc1)C(=O)c1ccc2nc(-c3ccc(F)cc3)c(-c3ccc(F)cc3)nc2c1` [Compound I-279, 2,3-bis(4-fluorophenyl)-N-[2-(1H-imidazol-1-yl)ethyl]-N-methylquinoxaline-6-carboxamide]: 2000 to 10000 nM, 13% and 89%.
On to `O=C(NCCCn1ccnc1)c1ccc2nc(N3CCC(n4c(=O)[nH]c5ccccc54)CC3)c(-c3ccccc3)nc2c1` [Compound I-280, N-[3-(1H-imidazol-1-yl)propyl]-2-[4-(2-oxo-2,3-dihydro-1H-benzimidazol-1-yl)piperidin-1-yl]-3-phenylquinoxaline-6-carboxamide], for which the 50% inhibitory concentration (IC50) on hNAMPT protein lay in the range of 100 to 500 nM. The inhibition at 1 µM was 83% at hNAMPT protein (compound concentration 1 μM) and -6% with PC3 cells.
Consider `O=C(NCCCn1ccnc1)c1ccc2nc(-c3ccccc3)c(-c3ccccc3Cl)nc2c1` [Compound I-281, 3-(2-chlorophenyl)-N-[3-(1H-imidazol-1-yl)propyl]-2-phenylquinoxaline-6-carboxamide], for which the IC50 on hNAMPT protein was in the range of 1000 to 2000 nM. Moreover, the figures for the inhibition at 1 µM on hNAMPT protein (compound concentration 1 μM) and in the experiment on PC3 cells were 37% and 6%, respectively.
In the case of `O=C(NCc1cn2cccnc2n1)c1ccc2nc(N3CCC(O)CC3)c(-c3ccc(F)cc3)nc2c1` [Compound I-282, 3-(4-Fluorophenyl)-2-(4-hydroxypiperidin-1-yl)-N-(imidazo[1,2-a]pyrimidin-2-ylmethyl)quinoxaline-6-carboxamide], at hNAMPT protein, the IC50 is less than 100 nM. The inhibition at 1 µM on hNAMPT protein (compound concentration 1 μM) stood at 91%. For the same compound, the inhibition at 1.667 µM with PC3 cells was 96%.
On to `O=C(NCCCn1ccnc1)c1ccc2nc(-c3ccccc3)c(N3CCn4ccnc4C3)nc2c1` [Compound I-283, 3-(5,6-dihydroimidazo[1,2-a]pyrazin-7(8H)-yl)-N-[3-(1H-imidazol-1-yl)propyl]-2-phenylquinoxaline-6-carboxamide], for which the IC50 on hNAMPT protein lay in the range of 2000 to 10000 nM. Further, the values for the inhibition at 1 µM at hNAMPT protein (compound concentration 1 μM) and with PC3 cells were 12% and 100%, respectively.
With `CC(C)Oc1c2c(nn1C)CCN(C(=O)c1ccc3nc(-c4ccc(F)cc4)c(-c4ccc(F)cc4)nc3c1)C2` [Compound I-284, [2,3-bis(4-fluorophenyl)quinoxalin-6-yl](3-isopropoxy-2-methyl-2,4,6,7-tetrahydro-5H-pyrazolo[4,3-c]pyridin-5-yl)methanone], the IC50 on hNAMPT protein lay within 2000 to 10000 nM. The inhibition at 1 µM at hNAMPT protein (compound concentration 1 μM) is 14%; in the experiment on PC3 cells, 98%.
Turning to `O=C(c1ccc2nc(-c3ccc(F)cc3)c(-c3ccc(F)cc3)nc2c1)N1CCc2[nH]nc(O)c2C1` [Compound I-285, [2,3-bis(4-fluorophenyl)quinoxalin-6-yl](3-hydroxy-1,4,6,7-tetrahydro-5H-pyrazolo[4,3-c]pyridin-5-yl)methanone], on hNAMPT protein, the 50% inhibitory concentration (IC50) was 2000 to 10000 nM. In addition, the values for the inhibition at 1 µM at hNAMPT protein (compound concentration 1 μM) and in the experiment on PC3 cells were 7% and 97%, respectively.
In the case of `NCc1ccc(-c2nc3cc(C(=O)NCCc4cccnc4)ccc3nc2-c2ccccc2)cc1` [Compound I-286, 3-[4-(Aminomethyl)phenyl]-2-phenyl-N-[2-(pyridin-3-yl)ethyl]quinoxaline-6-carboxamide], at hNAMPT protein, the IC50 lay within 2000 to 10000 nM and the inhibition at 1 µM was 13%. Also, the inhibition at 1 µM with PC3 cells is 4%.
Consider `O=C(NCCCc1ncc[nH]1)c1ccc2nc(N3CCS(=O)(=O)CC3)c(-c3ccc(F)cc3)nc2c1` [Compound I-287, 2-(1,1-dioxidothiomorpholin-4-yl)-3-(4-fluorophenyl)-N-[3-(1H-imidazol-2-yl)propyl]quinoxaline-6-carboxamide], for which, at hNAMPT protein, the IC50 was less than 100 nM. Further, the inhibition at 1 µM at hNAMPT protein (compound concentration 1 μM) came out at 98%. For the same compound, the inhibition at 1.667 µM with PC3 cells is 2%.
The like results for `O=C(NCCCc1ncc[nH]1)c1ccc2nc(N3CC4(CCOCC4)C3)c(-c3ccc(F)cc3)nc2c1` [Compound I-288, 3-(4-fluorophenyl)-N-[3-(1H-imidazol-2-yl)propyl]-2-(7-oxa-2-azaspiro[3.5]non-2-yl)quinoxaline-6-carboxamide] were, in that order, less than 100 nM, greater than 99% and 2%.
For the compound `O=C(NCCCn1ccnc1)c1ccc2nc(N3CCS(=O)(=O)CC3)c(-c3ccccc3)nc2c1` [Compound I-289, 2-(1,1-dioxidothiomorpholin-4-yl)-N-[3-(1H-imidazol-1-yl)propyl]-3-phenylquinoxaline-6-carboxamide], at hNAMPT protein, the IC50 was 1000 to 2000 nM. For the same compound, the inhibition at 1 µM at hNAMPT protein (compound concentration 1 μM) is 45%; with PC3 cells, -7%.
The matching figures for `CS(=O)(=O)Nc1cccc(-c2nc3ccc(C(=O)NCCCn4ccnc4)cc3nc2-c2ccccc2)c1` [Compound I-290, N-[3-(1H-imidazol-1-yl)propyl]-2-{3-[(methylsulfonyl)amino]phenyl}-3-phenylquinoxaline-6-carboxamide]: 100 to 500 nM, 81% and -8%.
